Experimental data reported in patent publication EP3144007A1 (priority 2015, dated 2017).
“And” between values parts separate entries of the source, which are not always exact repeats. Equal values may be shown once. Where a SMILES comes first, the peptide text is derived from it. Bridges are numbered along the chain shown (N, C = ends).

Columns and labels:
[1] = test system: cerebellar granule neurons; format: cell-based
[2] = test system: cerebellar granule neurons
[3] = target: TrkB receptor on cultured cerebellar granule neurons

Molecule	internalization of Hc-TeNT fragment (area occupied by Hc-TeNT) [1]	percentage of Hc-TeNT in colocalization with TrkB [1]	percentage of TrkB in co-localization with Hc-TeNT [1] [%]	competition with the Hc-TeNT fragment for binding to cell membrane [2]	IC50 ([2]; 3 h) [µM]	IC50 (concentration of unlabeled competitor necessary to displace 50% of specifically bound Hc-TeNT) ([2]; 3 h) [mg/L]	IC50 [3]
CSCC[C@@H]1NC(=O)CNC(=O)[C@H](CC(N)=O)NC(=O)[C@H](CC(N)=O)NC(=O)[C@H](CCSC)NC(=O)[C@H](Cc2c[nH]cn2)NC(=O)[C@H]([C@@H](C)O)NC(=O)[C@@H]2CCCN2C(=O)[C@H](CC(N)=O)NC(=O)[C@H](CC(=O)O)NC(=O)[C@H](CC(C)C)NC(=O)[C@H](CCC(N)=O)NC(=O)[C@H](CC(C)C)NC(=O)[C@@H](NC(=O)CN)CSSC[C@@H](C(=O)N[C@@H](CC(N)=O)C(=O)N[C@@H](CC(N)=O)C(=O)NCC(=O)O)NC(=O)[C@H](Cc2c[nH]cn2)NC(=O)[C@H]([C@@H](C)O)NC(=O)[C@@H]2CCCN2C(=O)[C@H](CC(N)=O)NC(=O)[C@H](CC(=O)O)NC(=O)[C@H](CC(C)C)NC(=O)[C@H](CCC(N)=O)NC(=O)[C@H](CC(C)C)NC1=O [d5 peptide] (H-GCLQLDNPTHMNNGMLQLDNPTHCNNG-OH; disulfide 2-24)	seems not to affect	about 44%	51	capable to compete	108	317.3	–
BDNF (from UniProt P23560 129-247) (ligand)	–	–	–	–	–	–	4.2 nM and 0.06 µg/mL
